# According to US5202315A, “Cephalosporin compounds” (Lucky, Ltd., priority 1989, dated 1993):
# Assays:
# Assay in all cases: Antibacterial activity, MIC
# Assay type in all cases: cell-based
# [1] = system: Salmonella typhimurium ATCC 14028; details: Salmonella enterica; ATCC 14028; agar two-fold dilution, 37° C., 20 hours; read-out: MIC
# Protocol: (§1) Also, the in vitro antibacterial activity was determined by the by a two-fold dilution method as described below:
# (§2) That is, the two-fold serial dilutions of the compound were made dispersed in Muller-Hinton agar medium. 2 μl of standard test strain which had the 10^7 CFU per ml was inoculated on the medium, and was incubated at 37° C. for 20 hours.
# [2] = system: Staphylococcus aureus ATCC 6538p; details: ATCC6538P, ATCC 6538p, agar two-fold dilution, 37° C., 20 hours, read-out: MIC
# Protocol: as §1, §2
# [3] = system: Enterobacter cloacae ATCC 27508; details: ATCC27508, ATCC 27508, agar two-fold dilution, 37° C., 20 hours, read-out: MIC
# Protocol: as §1, §2
# [4] = system: Citrobacter freundii ATCC 8090; details: ATCC8090, ATCC 8090, agar two-fold dilution, 37° C., 20 hours, read-out: MIC
# Protocol: as §1, §2
# [5] = system: Proteus mirabilis ATCC 25933; details: ATCC25933, ATCC 25933, agar two-fold dilution, 37° C., 20 hours, read-out: MIC
# Protocol: as §1, §2
# [6] = system: Pseudomonas aeruginosa ATCC 27853; details: ATCC27853, ATCC 27853, agar two-fold dilution, 37° C., 20 hours, read-out: MIC
# Protocol: as §1, §2
# [7] = system: Pseudomonas aeruginosa ATCC 25619; details: ATCC25619, ATCC 25619, agar two-fold dilution, 37° C., 20 hours, read-out: MIC
# Protocol: as §1, §2
# [8] = system: Bacillus megaterium ATCC 9885; details: Priestia megaterium, ATCC9885; ATCC 9885; agar two-fold dilution, 37° C., 20 hours; read-out: MIC
# Protocol: as §1, §2
# [9] = system: Providencia rettgeri ATCC 9250; details: ATCC9250, agar two-fold dilution, 37° C., 20 hours
# Protocol: as §1, §2
# [10] = system: Proteus vulgaris ATCC 6059; details: ATCC6059, ATCC 6059, agar two-fold dilution, 37° C., 20 hours, read-out: MIC
# Protocol: as §1, §2
# [11] = system: Shigella sonnei ATCC 11060; details: ATCC11060, ATCC 11060, agar two-fold dilution, 37° C., 20 hours, read-out: MIC
# Protocol: as §1, §2
# [12] = system: Enterobacter aerogenes ATCC 29751; details: Klebsiella aerogenes, ATCC29751; ATCC 29751; agar two-fold dilution, 37° C., 20 hours; read-out: MIC
# Protocol: as §1, §2
# [13] = system: Streptococcus faecalis ATCC 29212; details: Enterococcus faecalis, ATCC29212; ATCC 29212; agar two-fold dilution, 37° C., 20 hours; read-out: MIC
# Protocol: as §1, §2
# [14] = system: Escherichia coli ATCC 25922; details: ATCC25922, agar two-fold dilution, 37° C., 20 hours
# Protocol: as §1, §2
# [15] = system: Escherichia coli ATCC 10536; details: ATCC10536, agar two-fold dilution, 37° C., 20 hours
# Protocol: as §1, §2
# [16] = system: Bacillus cereus ATCC 11778; details: ATCC11778, ATCC 11778, agar two-fold dilution, 37° C., 20 hours, read-out: MIC
# Protocol: as §1, §2
# [17] = system: Shigella flexneri ATCC 11836; details: ATCC11836, agar two-fold dilution, 37° C., 20 hours
# Protocol: as §1, §2
# [18] = system: Pseudomonas aeruginosa ATCC 10145; details: ATCC10145, ATCC 10145, agar two-fold dilution, 37° C., 20 hours, read-out: MIC
# Protocol: as §1, §2
# [19] = system: Serratia marcescens ATCC 27117; details: ATCC27117, ATCC 27117, agar two-fold dilution, 37° C., 20 hours, read-out: MIC
# Protocol: as §1, §2
# [20] = system: Klebsiella pneumoniae ATCC 10031; details: ATCC10031, ATCC 10031, agar two-fold dilution, 37° C., 20 hours, read-out: MIC
# Protocol: as §1, §2
# [21] = system: Staphylococcus epidermidis ATCC 12228; details: ATCC12228, ATCC 12228, agar two-fold dilution, 37° C., 20 hours, read-out: MIC
# Protocol: as §1, §2
# [22] = system: Morganella morganii ATCC 8076h; details: ATCC8076H, agar two-fold dilution, 37° C., 20 hours
# Protocol: as §1, §2
# [23] = system: Micrococcus luteus ATCC 9341; details: ATCC9341, ATCC 9341, agar two-fold dilution, 37° C., 20 hours, read-out: MIC
# Protocol: as §1, §2
# [24] = system: Staphylococcus aureus ATCC 10537; details: ATCC10537, ATCC 10537, agar two-fold dilution, 37° C., 20 hours, read-out: MIC
# Protocol: as §1, §2
# [25] = system: Acinetobacter calcoaceticus ATCC 15473; details: ATCC15473, ATCC 15473, agar two-fold dilution, 37° C., 20 hours, read-out: MIC
# Protocol: as §1, §2
SMILES,MIC [1],MIC [2],MIC [3],MIC [4],MIC [5],MIC [6],MIC [7],MIC [8],MIC [9],MIC [10],MIC [11],MIC [12],MIC [13],MIC [14],MIC [15],MIC [16],MIC [17],MIC [18],MIC [19],MIC [20],also measured
CCO/N=C(\C(=O)NC1C(=O)N2C(C(=O)[O-])=C(CSc3nc(N)cc(N)[n+]3CC)CSC12)c1nsc(N)n1 (centres unmarked) [Compound I-21],0.5 µg/mL,0.5 µg/mL,0.016 µg/mL,0.13 µg/mL,1 µg/mL,2 µg/mL,1 µg/mL,0.13 µg/mL,≤ 0.008 µg/mL,1 µg/mL,0.25 µg/mL,0.5 µg/mL,16 µg/mL,0.13 µg/mL,0.13 µg/mL,16 µg/mL,0.063 µg/mL,4 µg/mL,0.25 µg/mL,0.016 µg/mL,MIC [21]: 0.13 µg/mL; MIC [22]: 0.016 µg/mL; MIC [23]: 0.016 µg/mL; MIC [24]: 0.25 µg/mL; MIC [25]: 4 µg/mL
CCC[n+]1c(N)cc(N)nc1SCC1=C(C(=O)[O-])N2C(=O)C(NC(=O)/C(=N\OCC)c3nsc(N)n3)C2SC1 (centres unmarked) [Compound I-22],2 µg/mL,0.5 µg/mL,0.031 µg/mL,0.25 µg/mL,2 µg/mL,4 µg/mL,1 µg/mL,0.13 µg/mL,≤ 0.008 µg/mL,2 µg/mL,0.5 µg/mL,1 µg/mL,16 µg/mL,0.25 µg/mL,0.25 µg/mL,16 µg/mL,0.13 µg/mL,16 µg/mL,0.5 µg/mL,0.016 µg/mL,MIC [21]: 0.25 µg/mL; MIC [22]: 0.031 µg/mL; MIC [23]: 0.016 µg/mL; MIC [24]: 0.5 µg/mL; MIC [25]: 4 µg/mL
C=CC[n+]1c(N)cc(N)nc1SCC1=C(C(=O)[O-])N2C(=O)C(NC(=O)/C(=N\OCC)c3nsc(N)n3)C2SC1 (centres unmarked) [Compound I-23],2 µg/mL,1 µg/mL,0.031 µg/mL,0.25 µg/mL,2 µg/mL,8 µg/mL,2 µg/mL,0.25 µg/mL,≤ 0.008 µg/mL,1 µg/mL,0.5 µg/mL,2 µg/mL,32 µg/mL,0.25 µg/mL,0.5 µg/mL,16 µg/mL,0.13 µg/mL,16 µg/mL,1 µg/mL,0.031 µg/mL,MIC [21]: 0.25 µg/mL; MIC [22]: 0.031 µg/mL; MIC [23]: 0.016 µg/mL; MIC [24]: 1 µg/mL; MIC [25]: 8 µg/mL
CO/N=C(\C(=O)NC1C(=O)N2C(C(=O)[O-])=C(CSc3nc(N)cc(N)[n+]3C)CSC12)c1nsc(N)n1 (centres unmarked) [Compound I-24],0.5 µg/mL,0.5 µg/mL,0.063 µg/mL,0.13 µg/mL,1 µg/mL,4 µg/mL,4 µg/mL,0.25 µg/mL,0.016 µg/mL,1 µg/mL,0.13 µg/mL,1 µg/mL,32 µg/mL,0.13 µg/mL,0.13 µg/mL,32 µg/mL,0.031 µg/mL,16 µg/mL,0.25 µg/mL,0.031 µg/mL,MIC [21]: 0.25 µg/mL; MIC [22]: 0.063 µg/mL; MIC [23]: 0.13 µg/mL; MIC [24]: 0.5 µg/mL; MIC [25]: 2 µg/mL
CC[n+]1c(N)cc(N)nc1SCC1=C(C(=O)[O-])N2C(=O)C(NC(=O)/C(=N\OC)c3nsc(N)n3)C2SC1 (centres unmarked) [Compound I-25],0.25 µg/mL,0.5 µg/mL,0.031 µg/mL,0.13 µg/mL,1 µg/mL,4 µg/mL,4 µg/mL,0.13 µg/mL,0.016 µg/mL,1 µg/mL,0.13 µg/mL,1 µg/mL,32 µg/mL,0.13 µg/mL,0.13 µg/mL,32 µg/mL,0.031 µg/mL,16 µg/mL,0.25 µg/mL,0.031 µg/mL,MIC [21]: 0.13 µg/mL; MIC [22]: 0.031 µg/mL; MIC [23]: 0.031 µg/mL; MIC [24]: 0.5 µg/mL; MIC [25]: 2 µg/mL
C[n+]1c(N)cc(N)nc1SCC1=C(C(=O)[O-])N2C(=O)C(NC(=O)/C(=N\OC(C)(C)C(=O)O)c3nsc(N)n3)C2SC1 (centres unmarked) [Compound I-26],0.5 µg/mL,8 µg/mL,0.031 µg/mL,0.13 µg/mL,0.13 µg/mL,2 µg/mL,2 µg/mL,1 µg/mL,≤ 0.008 µg/mL,0.13 µg/mL,0.13 µg/mL,1 µg/mL,> 128 µg/mL,0.13 µg/mL,0.13 µg/mL,> 128 µg/mL,0.063 µg/mL,2 µg/mL,0.25 µg/mL,0.13 µg/mL,MIC [21]: 4 µg/mL; MIC [22]: ≤ 0.008 µg/mL; MIC [23]: 1 µg/mL; MIC [24]: 8 µg/mL; MIC [25]: 4 µg/mL
CC[n+]1c(N)cc(N)nc1SCC1=C(C(=O)[O-])N2C(=O)C(NC(=O)/C(=N\OC(C)(C)C(=O)O)c3nsc(N)n3)C2SC1 (centres unmarked) [Compound I-27],0.5 µg/mL,8 µg/mL,0.063 µg/mL,0.25 µg/mL,0.13 µg/mL,2 µg/mL,2 µg/mL,1 µg/mL,≤ 0.008 µg/mL,0.13 µg/mL,0.13 µg/mL,2 µg/mL,> 128 µg/mL,0.13 µg/mL,0.13 µg/mL,> 128 µg/mL,0.25 µg/mL,4 µg/mL,0.25 µg/mL,0.063 µg/mL,MIC [21]: 4 µg/mL; MIC [22]: ≤ 0.008 µg/mL; MIC [23]: 0.5 µg/mL; MIC [24]: 4 µg/mL; MIC [25]: 8 µg/mL
CCC[n+]1c(N)cc(N)nc1SCC1=C(C(=O)[O-])N2C(=O)C(NC(=O)/C(=N\OC(C)(C)C(=O)O)c3nsc(N)n3)C2SC1 (centres unmarked) [Compound I-28],0.5 µg/mL,8 µg/mL,0.031 µg/mL,0.13 µg/mL,0.13 µg/mL,2 µg/mL,2 µg/mL,0.25 µg/mL,≤ 0.008 µg/mL,0.25 µg/mL,0.13 µg/mL,4 µg/mL,> 128 µg/mL,0.13 µg/mL,0.13 µg/mL,128 µg/mL,0.063 µg/mL,4 µg/mL,0.25 µg/mL,0.13 µg/mL,MIC [21]: 4 µg/mL; MIC [22]: ≤ 0.008 µg/mL; MIC [23]: 0.5 µg/mL; MIC [24]: 4 µg/mL; MIC [25]: 8 µg/mL
